Source: patent US6288091A, “Antiherpes virus compounds and methods for their preparation and use” (Boehringer Ingelheim Ltd., priority 1999, dated 2001)
Like-named read-outs stand apart in the source and are kept apart here.

Experiments:
[1] = test system: HSV-1 strain F or KOS; assay: Inhibition of herpes simplex virus (HSV-1) replication in cell culture (BHK-21 cells, glycoprotein C ELISA); format: cell-based
Method in brief: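 BHK-21 clone 13 cells infected with HSV-1 F or KOS at MOI 0.05 PFU/cell for 1 h at 37°, washed, then treated with compound in α-MEM/2% FBS for 24 h. Late glycoprotein C quantified by ELISA (mAb C11, HRP/OPD, 450 nm); EC50 from % inhibition.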

[2] = biological target: T1, HSV-1 helicase-primase (Human herpesvirus 1, UniProt P10189+P10236); assay: HSV-1 DNA-dependent ATPase assay (inhibition of HSV-1 helicase-primase); format: biochemical
T1 construct: made in house; host or cells: Sf21 insect cells triply infected with recombinant baculoviruses (UL5, UL8, UL52)
Method in brief: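 Holoenzyme (UL5/UL8/UL52) expressed in baculovirus-infected Sf21 cells and purified, used at 3 μg/mL with 4 mM ATP and 25 μM primed M13 ssDNA in HEPES pH 7.5, 5.5 mM MgCl2, 3.3% DMSO. Incubated 20 min at 34°. Released phosphate read by malachite green at 650 nm, and activity taken from net absorbance with versus without inhibitor.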

[3] = test system: HCMV (strain AD169); assay: Inhibition of HCMV replication, plaque reduction assay (PRA, Hs-68 cells); format: cell-based, Human Cytomegalovirus (HCMV); settings: read-out: PRA CMV EC50
Method in brief: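 Hs-68 monolayers (80–90% confluent) were infected with ~50 PFU HCMV AD169 for 2 h at 37°, then given compound in DMEM/5% inactivated FBS, refreshed after 4 days and kept 4 more days. Plaques were counted after formaldehyde fixation and crystal violet staining. EC50 derives from percent plaque reduction versus untreated wells.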

[4] = Human alphaherpesvirus 1, BHK-21, Group 1 Table 3 entries
[5] = Human betaherpesvirus 5, AD169, Hs68, Group 1 Table 3 entries
[6] = Human alphaherpesvirus 1, BHK-21, Group 1 Table 2 entries
[7] = Group 1 Table 2 entries (Q = CH2)
[8] = Human betaherpesvirus 5, AD169, Hs68, Group 1 Table 2 entries
[9] = Human alphaherpesvirus 1, BHK-21, Group 1 Table 1 entries
[10] = Human betaherpesvirus 5, AD169, Hs68, Group 1 Table 1 entries
[11] = Human alphaherpesvirus 1, BHK-21, Group 1 Table 5 entries
[12] = Human betaherpesvirus 5, AD169, Hs68, Group 1 Table 5 entries

T1 sequence (P10192 whole entry): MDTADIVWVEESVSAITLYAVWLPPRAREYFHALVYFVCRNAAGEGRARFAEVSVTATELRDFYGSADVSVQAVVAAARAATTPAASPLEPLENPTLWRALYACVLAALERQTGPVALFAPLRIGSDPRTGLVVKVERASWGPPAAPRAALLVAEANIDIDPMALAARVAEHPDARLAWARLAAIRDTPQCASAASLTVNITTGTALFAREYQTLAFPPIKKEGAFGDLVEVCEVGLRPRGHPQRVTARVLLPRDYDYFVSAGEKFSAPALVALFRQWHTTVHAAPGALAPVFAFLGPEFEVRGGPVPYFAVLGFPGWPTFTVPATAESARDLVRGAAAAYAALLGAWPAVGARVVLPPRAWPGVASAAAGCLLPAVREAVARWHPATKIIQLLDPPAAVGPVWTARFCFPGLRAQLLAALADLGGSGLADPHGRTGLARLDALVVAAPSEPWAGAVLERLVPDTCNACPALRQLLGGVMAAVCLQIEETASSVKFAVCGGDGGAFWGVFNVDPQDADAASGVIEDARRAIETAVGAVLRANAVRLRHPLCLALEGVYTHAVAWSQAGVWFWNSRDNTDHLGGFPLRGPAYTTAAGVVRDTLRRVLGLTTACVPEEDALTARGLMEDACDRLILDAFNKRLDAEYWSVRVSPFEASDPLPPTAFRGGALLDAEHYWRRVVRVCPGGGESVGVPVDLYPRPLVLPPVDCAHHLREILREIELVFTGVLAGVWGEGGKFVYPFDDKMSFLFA
T1 sequence (P10236 whole entry): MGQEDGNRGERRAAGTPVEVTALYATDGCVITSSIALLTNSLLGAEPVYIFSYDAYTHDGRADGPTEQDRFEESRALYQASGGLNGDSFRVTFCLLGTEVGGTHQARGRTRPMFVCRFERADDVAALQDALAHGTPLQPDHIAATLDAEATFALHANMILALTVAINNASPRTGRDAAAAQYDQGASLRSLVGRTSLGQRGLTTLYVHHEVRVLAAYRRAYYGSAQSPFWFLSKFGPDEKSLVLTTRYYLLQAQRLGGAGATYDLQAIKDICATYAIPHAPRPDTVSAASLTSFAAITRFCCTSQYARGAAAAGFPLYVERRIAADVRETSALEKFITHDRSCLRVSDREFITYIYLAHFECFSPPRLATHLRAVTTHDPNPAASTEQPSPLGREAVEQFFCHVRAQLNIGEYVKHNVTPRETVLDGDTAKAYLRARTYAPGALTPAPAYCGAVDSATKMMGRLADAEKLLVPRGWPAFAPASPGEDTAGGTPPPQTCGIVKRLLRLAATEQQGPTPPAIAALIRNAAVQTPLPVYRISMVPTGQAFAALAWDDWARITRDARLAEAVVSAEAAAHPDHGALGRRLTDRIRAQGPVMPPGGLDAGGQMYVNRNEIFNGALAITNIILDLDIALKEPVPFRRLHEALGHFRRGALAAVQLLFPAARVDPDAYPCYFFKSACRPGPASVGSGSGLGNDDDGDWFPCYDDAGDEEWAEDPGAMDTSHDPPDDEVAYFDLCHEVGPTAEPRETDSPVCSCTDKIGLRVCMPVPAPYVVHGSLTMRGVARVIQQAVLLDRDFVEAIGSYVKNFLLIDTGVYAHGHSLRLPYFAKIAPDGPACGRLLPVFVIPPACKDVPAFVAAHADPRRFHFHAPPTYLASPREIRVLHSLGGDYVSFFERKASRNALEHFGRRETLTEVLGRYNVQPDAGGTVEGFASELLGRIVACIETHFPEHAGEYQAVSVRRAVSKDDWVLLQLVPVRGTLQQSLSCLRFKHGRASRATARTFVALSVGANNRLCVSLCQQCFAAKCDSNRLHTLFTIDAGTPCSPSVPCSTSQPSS
T1 sequence (P10189 whole entry): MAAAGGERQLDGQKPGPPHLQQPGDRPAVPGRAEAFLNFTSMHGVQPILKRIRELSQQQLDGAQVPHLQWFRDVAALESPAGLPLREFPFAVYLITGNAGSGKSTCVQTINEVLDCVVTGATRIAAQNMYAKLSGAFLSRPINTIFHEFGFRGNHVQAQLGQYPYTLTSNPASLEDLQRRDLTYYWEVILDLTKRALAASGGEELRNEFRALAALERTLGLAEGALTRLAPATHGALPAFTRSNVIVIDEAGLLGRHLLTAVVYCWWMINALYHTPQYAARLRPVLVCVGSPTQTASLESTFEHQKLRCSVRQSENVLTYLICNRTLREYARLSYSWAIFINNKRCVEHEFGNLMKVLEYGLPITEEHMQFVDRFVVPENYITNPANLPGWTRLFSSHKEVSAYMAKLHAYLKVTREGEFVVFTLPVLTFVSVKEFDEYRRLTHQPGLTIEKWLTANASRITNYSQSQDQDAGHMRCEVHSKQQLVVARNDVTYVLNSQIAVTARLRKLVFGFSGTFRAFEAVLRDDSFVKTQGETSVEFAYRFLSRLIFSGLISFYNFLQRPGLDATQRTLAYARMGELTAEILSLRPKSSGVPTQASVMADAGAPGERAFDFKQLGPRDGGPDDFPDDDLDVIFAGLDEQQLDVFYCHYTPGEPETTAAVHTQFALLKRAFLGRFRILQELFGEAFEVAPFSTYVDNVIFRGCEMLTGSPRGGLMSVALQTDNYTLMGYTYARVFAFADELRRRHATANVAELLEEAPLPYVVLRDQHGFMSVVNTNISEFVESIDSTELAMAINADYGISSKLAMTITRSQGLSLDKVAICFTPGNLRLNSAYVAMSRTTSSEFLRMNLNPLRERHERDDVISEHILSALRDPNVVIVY

## CN(C(=O)CN(Cc1ccccc1)C(=O)C1CCCCC1)c1ccc(-c2csc(N)n2)cc1 [Example 1]
[1]; [4]
  EC50: 0.016 µM
[2]; Group 1 Table 3 entries
  IC50: 0.053 µM
[3]; [5]
  EC50: 24 µM

## Nc1nc(-c2ccc(NC(=O)CCNCc3ccccc3)cc2)cs1 [Example 1]
[1]; [6]
  EC50: 6 µM
[2]; [7]
  IC50: 21 µM
[3]; [8]
  EC50: 30 µM

## Nc1nc(-c2ccc(NC(=O)CNCc3ccccc3)cc2)cs1 [Example 1]
[1]; [9]
  EC50: 2.7 µM
[2]; Group 1 Table 1 entries
  IC50: 6.4 µM
[3]; [10]
  EC50: > 60 µM

## Nc1nc(-c2ccc(NC(=O)CCN(Cc3ccccc3)Cc3ccccc3)cc2)cs1 [Example 2]
[1]; [6]
  EC50: 2.2 µM
[2]; [7]
  IC50: 1.2 µM
[3]; [8]
  EC50: 4.7 µM

## CC(C)(C)OC(=O)N[C@@H](Cc1ccccc1)C(=O)Nc1ccc(-c2csc(N)n2)cc1 [Example 3]
[1]; [11]
  EC50: 0.016 µM
[2]; Group 1 Table 5 entries
  IC50: 0.046 µM
[3]; [12]
  EC50: 24 µM

## Nc1nc(-c2ccc(NC(=O)CCN(Cc3ccccc3)C(=O)c3ccccc3)cc2)cs1 [Example 3]
[1]; [6]
  EC50: 2.2 µM
[2]; [7]
  IC50: 2.1 µM
[3]; [8]
  EC50: 9.2 µM

## Nc1nc(-c2ccc(NC(=O)CNCCCc3ccccc3)cc2)cs1 [Example 3]
[1]; [9]
  EC50: 18 µM
[2]; Group 1 Table 1 entries
  IC50: 7.6 µM
[3]; [10]
  EC50: > 14 µM

## CC(C)(C)OC(=O)N[C@H](Cc1ccccc1)C(=O)Nc1ccc(-c2csc(N)n2)cc1 [Example 4]
[1]; [11]
  EC50: 0.57 µM
[2]; Group 1 Table 5 entries
  IC50: 1.5 µM
[3]; [12]
  EC50: 22 µM

## Nc1nc(-c2ccc(NC(=O)CCNCc3cccc(F)c3)cc2)cs1 [Example 4]
[1]; [6]
  EC50: 2.2 µM
[2]; [7]
  IC50: 5.2 µM
[3]; [8]
  EC50: > 3.7 µM

## O=C(CN(Cc1ccccc1)C(=O)C1CCCCC1)Nc1ccc(-c2cscn2)cc1 [Example 5]
[1]; [4]
  EC50: 0.012 µM
[2]; Group 1 Table 3 entries
  IC50: 0.1 µM
[3]; [5]
  EC50: 16 µM

## CNc1nc(-c2ccc(NC(=O)CN(Cc3ccccc3)C(=O)c3ccccc3)cc2)cs1 [Example 6]
[1]; [4]
  EC50: 0.012 µM
[2]; Group 1 Table 3 entries
  IC50: 0.33 µM
[3]; [5]
  EC50: 16 µM

## Nc1nc(-c2ccc(NC(=O)[C@H](Cc3ccccc3)NCc3ccccc3)cc2)cs1 [Example 6]
[1]; [11]
  EC50: 0.83 µM
[2]; Group 1 Table 5 entries
  IC50: 1.06 µM
[3]; [12]
  EC50: 7 µM

## CN[C@@H](Cc1ccccc1)C(=O)Nc1ccc(-c2csc(N)n2)cc1 [Example 8]
[1]; [11]
  EC50: 14 µM
[2]; Group 1 Table 5 entries
  IC50: 45 µM
[3]; [12]
  EC50: 33 µM

## Nc1nc(-c2ccc(NC(=O)CCN(Cc3ccccc3)C(=O)C3CCCCC3)cc2)cs1 [Example 8]
[1]; [6]
  EC50: 1.1 µM
[2]; [7]
  IC50: 1.7 µM
[3]; [8]
  EC50: 13 µM

## Nc1nc(-c2ccc(NC(=O)[C@@H](Cc3ccccc3)N(Cc3ccccc3)C(=O)C3CCCCC3)cc2)cs1 [Example 9]
[1]; [11]
  EC50: 0.29 µM
[2]; Group 1 Table 5 entries
  IC50: 0.052 µM
[3]; [12]
  EC50: 8.7 µM

## C[C@H](NCC(=O)Nc1ccc(-c2csc(N)n2)cc1)c1ccccc1 [Example 10]
[1]; [9]
  EC50: 2.2 µM
[2]; Group 1 Table 1 entries
  IC50: 6.9 µM
[3]; [10]
  EC50: > 30 µM

## Nc1nc(-c2ccc(NC(=O)CCNC3Cc4ccccc4C3)cc2)cs1 [Example 10]
[1]; [6]
  EC50: 3.9 µM
[2]; [7]
  IC50: 21 µM
[3]; [8]
  EC50: 14 µM

## CN(C)c1nc(-c2ccc(NC(=O)CN(Cc3ccccc3)C(=O)c3ccccc3)cc2)cs1 [Example 11]
[1]; [4]
  EC50: 0.024 µM
[2]; Group 1 Table 3 entries
  IC50: > 50 µM
[3]; [5]
  EC50: 18 µM

## C[C@@H](NCC(=O)Nc1ccc(-c2csc(N)n2)cc1)c1ccccc1 [Example 11]
[1]; [9]
  EC50: 1.3 µM
[2]; Group 1 Table 1 entries
  IC50: 3.7 µM
[3]; [10]
  EC50: 19 µM

## Nc1nc(-c2ccc(NC(=O)CCN(C(=O)c3cccnc3)C3Cc4ccccc4C3)cc2)cs1 [Example 12]
[1]; [6]
  EC50: 7.6 µM
[2]; [7]
  IC50: 10 µM
[3]; [8]
  EC50: 8 µM

## CC(C)(C)OC(=O)N(CCC(=O)Nc1ccc(-c2csc(N)n2)cc1)C1Cc2ccccc2C1 [Example 14]
[1]; [6]
  EC50: 1.8 µM
[2]; [7]
  IC50: 1.7 µM
[3]; [8]
  EC50: > 28 µM

## CC(C)(C)OC(=O)N(CCC(=O)Nc1ccc(-c2csc(N)n2)cc1)Cc1ccccc1 [Example 15]
[1]; [6]
  EC50: 0.64 µM
[2]; [7]
  IC50: 0.28 µM
[3]; [8]
  EC50: 9 µM

## CN(CC(=O)Nc1ccc(-c2csc(N)n2)cc1)Cc1ccccc1 [Example 15]
[1]; [9]
  EC50: 0.95 µM
[2]; Group 1 Table 1 entries
  IC50: 3.3 µM
[3]; [10]
  EC50: 6.5 µM

## Nc1nc(-c2ccc(NC(=O)CCN(Cc3ccccc3)C(=O)OCc3ccccc3)cc2)cs1 [Example 16]
[1]; [6]
  EC50: 2.6 µM
[2]; [7]
  IC50: 1.8 µM
[3]; [8]
  EC50: 8 µM

## Nc1nc(-c2ccc(NC(=O)CN(Cc3ccccc3)Cc3ccccc3)cc2)cs1 [Example 16]
[1]; [9]
  EC50: 0.45 µM
[2]; Group 1 Table 1 entries
  IC50: 0.55 µM
[3]; [10]
  EC50: 13 µM

## Nc1nc(-c2ccc(NC(=O)CCN(Cc3ccccc3)CC3CCCCC3)cc2)cs1 [Example 17]
[1]; [6]
  EC50: 1.8 µM
[2]; [7]
  IC50: 0.76 µM
[3]; [8]
  EC50: > 5 µM

## CC(=O)Nc1nc(-c2ccc(NC(=O)CN(Cc3ccccc3)C(C)=O)cc2)cs1 [Example 18]
[1]; [4]
  EC50: > 30 µM
[2]; Group 1 Table 3 entries
  IC50: > 100 µM
[3]; [5]
  EC50: > 81 µM

## C[C@@H](c1ccccc1)N(CCC(=O)Nc1ccc(-c2csc(N)n2)cc1)C(=O)OC(C)(C)C [Example 18]
[1]; [6]
  EC50: 1.6 µM
[2]; [7]
  IC50: 1 µM
[3]; [8]
  EC50: 3.3 µM

## C[C@@H](c1ccccc1)N(CCC(=O)Nc1ccc(-c2csc(N)n2)cc1)Cc1ccccc1 [Example 19]
[1]; [6]
  EC50: 0.89 µM
[2]; [7]
  IC50: 0.46 µM
[3]; [8]
  EC50: 4 µM

## CC(C)c1nc(-c2ccc(NC(=O)CN(Cc3ccccc3)C(=O)c3ccccc3)cc2)cs1 [Example 20]
[1]; [4]
  EC50: > 25 µM
[2]; Group 1 Table 3 entries
  IC50: > 50 µM
[3]; [5]
  EC50: 70 µM

## C[C@H](NCCC(=O)Nc1ccc(-c2csc(N)n2)cc1)c1ccccc1 [Example 20]
[1]; [6]
  EC50: 1.3 µM
[2]; [7]
  IC50: 7.2 µM
[3]; [8]
  EC50: 13 µM

## CC(C)(C)OC(=O)N(CCC(=O)Nc1ccc(-c2csc(N)n2)cc1)CC1CCCCC1 [Example 21]
[1]; [6]
  EC50: 0.45 µM
[2]; [7]
  IC50: 0.028 µM
[3]; [8]
  EC50: 6.5 µM

## CN(CC(=O)Nc1ccc(-c2csc(N)n2)cc1)C(=O)c1ccncc1 [Example 22]
[1]; [9]
  EC50: 1.8 µM
[2]; Group 1 Table 1 entries
  IC50: 5.9 µM
[3]; [10]
  EC50: 110 µM

## Nc1nc(-c2ccc(NC(=O)CCNCC3CCCCC3)cc2)cs1 [Example 22]
[1]; [6]
  EC50: 6 µM
[2]; [7]
  IC50: 29 µM
[3]; [8]
  EC50: > 6 µM

## CCCC(CCC)NCCC(=O)Nc1ccc(-c2csc(N)n2)cc1 [Example 23]
[1]; [6]
  EC50: 6 µM
[2]; [7]
  IC50: 45 µM
[3]; [8]
  EC50: > 9 µM

## Nc1nc(-c2ccc(NC(=O)CN(Cc3ccccc3)C(=O)c3ccccc3)cc2)cs1 [Example 23]
[1]; [9]
  EC50: 0.007 µM
[2]; Group 1 Table 1 entries
  IC50: 0.072 µM
[3]; [10]
  EC50: 36 µM

## Nc1nc(-c2ccc(NC(=O)CCN(CC3CCCCC3)C(=O)c3cccnc3)cc2)cs1 [Example 24]
[1]; [6]
  EC50: 1.7 µM
[2]; [7]
  IC50: 1.2 µM
[3]; [8]
  EC50: 31 µM

## Nc1nc(-c2ccc(NC(=O)CN(Cc3ccccc3)C(=O)c3ccc(F)cc3)cc2)cs1 [Example 24]
[1]; [9]
  EC50: 0.002 µM
[2]; Group 1 Table 1 entries
  IC50: 0.048 µM
[3]; [10]
  EC50: 15 µM

## C[C@@H](NCCC(=O)Nc1ccc(-c2csc(N)n2)cc1)c1ccccc1 [Example 25]
[1]; [6]
  EC50: 2.6 µM
[2]; [7]
  IC50: 13.6 µM
[3]; [8]
  EC50: > 6 µM

## Nc1nc(-c2ccc(NC(=O)CN(Cc3ccccc3)C(=O)Cc3ccccc3)cc2)cs1 [Example 26]
[1]; [9]
  EC50: 0.05 µM
[2]; Group 1 Table 1 entries
  IC50: 0.5 µM
[3]; [10]
  EC50: 15 µM

## Nc1nc(-c2ccc(NC(=O)CN(Cc3ccccc3)C(=O)c3ccccn3)cc2)cs1 [Example 27]
[1]; [9]
  EC50: 0.28 µM
[2]; Group 1 Table 1 entries
  IC50: 1 µM
[3]; [10]
  EC50: > 36 µM

## Nc1nc(-c2ccc(NC(=O)CN(Cc3ccccc3)C(=O)c3cccnc3)cc2)cs1 [Example 28]
[1]; [9]
  EC50: 0.13 µM
[2]; Group 1 Table 1 entries
  IC50: 0.43 µM
[3]; [10]
  EC50: 35 µM
